The text below walks through data of paper PMC11945486, “TAS1R2/TAS1R3 Single-Nucleotide Polymorphisms Affect Sweet Taste Receptor Activation by Sweeteners: The SWEET Project” (Nutrients, 2025).

Structures are written as SMILES.

The test deals with T1, human TAS1R2-C9S (subunit alone) (Homo sapiens, UniProt Q8TE23).
T1 construct: expressed in transfected cells; host or cells: HEK293T-Gα16gust44
T1 sequence (Q8TE23 20-839): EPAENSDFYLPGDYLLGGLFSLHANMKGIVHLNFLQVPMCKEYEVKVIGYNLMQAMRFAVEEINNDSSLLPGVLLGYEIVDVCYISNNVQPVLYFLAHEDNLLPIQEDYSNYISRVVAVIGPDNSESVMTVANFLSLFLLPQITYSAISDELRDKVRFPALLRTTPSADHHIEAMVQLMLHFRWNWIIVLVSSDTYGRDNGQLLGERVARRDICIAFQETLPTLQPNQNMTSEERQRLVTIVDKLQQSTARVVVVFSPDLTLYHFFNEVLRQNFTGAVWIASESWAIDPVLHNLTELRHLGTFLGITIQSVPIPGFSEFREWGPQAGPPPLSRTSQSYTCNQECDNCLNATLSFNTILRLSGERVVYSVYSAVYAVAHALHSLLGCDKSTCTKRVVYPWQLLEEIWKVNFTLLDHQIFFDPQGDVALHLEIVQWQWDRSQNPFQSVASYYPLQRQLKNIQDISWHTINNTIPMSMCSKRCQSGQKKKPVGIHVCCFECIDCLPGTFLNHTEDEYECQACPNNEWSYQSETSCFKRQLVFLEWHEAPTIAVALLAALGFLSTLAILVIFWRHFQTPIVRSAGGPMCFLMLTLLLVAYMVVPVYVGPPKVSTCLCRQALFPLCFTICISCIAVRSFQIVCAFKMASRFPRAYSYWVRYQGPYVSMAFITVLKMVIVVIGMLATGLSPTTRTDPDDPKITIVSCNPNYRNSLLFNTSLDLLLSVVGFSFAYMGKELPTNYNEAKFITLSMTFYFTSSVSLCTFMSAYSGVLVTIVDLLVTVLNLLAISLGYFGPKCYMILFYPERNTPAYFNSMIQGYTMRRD
Kind of test: Calcium mobilisation assay, TAS1R2-C9S subunit alone. Format: cell-based. The text has this:
The coding sequences for TAS1R2 and TAS1R3 were commercially synthesised, and the human codon was optimised for expression in human cells. The coding sequences of human TAS1R2 and TAS1R3 were subcloned and inserted into the mammalian expression vectors pcDNA6/myc-HisA and pcDNA4/myc-HisA (Invitrogen; Thermo Fisher Scientific; Illkirch, France) between the EcoRI and NotI restriction sites, generating the plasmids pcDNA6-TAS1R2 and pcDNA4-TAS1R3, respectively. To increase protein expression in mammalian cells, an upstream start codon was used, which was a sequence called MAX, corresponding to the QBI SP163 element also described in pcDNA4-HisMax (Invitrogen; Thermo Fisher Scientific; Illkirch, France). To measure the expression level of the receptor by immunohistochemistry, we used the FLAG sequence ([…]) in the C-terminal position, which encodes the FLAG tag epitope. […]
The HEK293T cells were kindly provided by Jay P. Slack (Givaudan Flavors Corporation; Cincinnati, OH, USA). […] The fluorescence intensity was measured for 90 s (excitation 488 nm, emission 510 nm) in an automated fluorometric FlexStation®3 Multi-Mode microplate reader (Molecular Devices; San Jose, CA, USA). […] The Ca^2+ changes were expressed as fractional changes in fluorescent light intensity: ΔF/F = (F − F0)/F0, where F was the fluorescent light intensity at each point, and F0 was the value of emitted fluorescent light prior to stimulus application. To calculate dose–response relationships, the changes in fluorescence upon stimulus application were averaged, mock-subtracted and baseline-corrected. […] The half-maximal effective concentrations (EC50 values) and maximal signal amplitudes were calculated using SigmaPlot software (version 15.0) (Systat Software; San Jose, CA, USA).
For in vitro calcium mobilisation assay performed on hTAS1R2-SNPs, hTAS1R3-SNPs and mTAS1R3-I60T, 6 to 7 concentrations were tested for each sweet compound, plus buffer alone. All concentration–receptor combinations were measured in duplicate, and each experiment was repeated at least 4 times (8 wells/concentration). […]
A general note: A change in cytosolic calcium serves as a functional read-out for many receptors and channels.

Usually EC50 stands for the concentration needed to bring the measured effect to its halfway point. Take `C=C(C)[C@@H]1CC=C(/C=N/O)CC1` [Perillartine, perillartine]: the EC50 is 190 ± 26.6 µM and the “R1 = Variant EC50/WT EC50” value was 2.1. In addition, the “Max ΔF/F0” value (maximal signal amplitude) was 0.44 ± 0.02.
